According to ChEMBL document CHEMBL5137081, “N-Heterocyclic 3-Pyridyl Carboxamide Inhibitors of DHODH for the Treatment of Acute Myelogenous Leukemia” (J Med Chem, 2022):

Columns and labels:
[1] = target: Dihydroorotate dehydrogenase (quinone), mitochondrial (Mus musculus, UniProt O35435); assay: Inhibition of mouse DHODH
[2] = Stability in human hepatocytes assessed as intrinsic clearance measured per 10^6 cells incubated upto 120 mins by LC-MS/MS analysis; format: ADME, cell-based, Hepatocyte; conditions: 2 h
Cytochrome P450 2D6 = Cytochrome P450 2D6 (Homo sapiens, UniProt P10635); assay: Inhibition of CYP2D6 in human liver microsomes incubated for 10 mins by LC-MS/MS analysis; format: ADME, Microsome
Chain of Cytochrome P450 2D6 (P10635 whole entry): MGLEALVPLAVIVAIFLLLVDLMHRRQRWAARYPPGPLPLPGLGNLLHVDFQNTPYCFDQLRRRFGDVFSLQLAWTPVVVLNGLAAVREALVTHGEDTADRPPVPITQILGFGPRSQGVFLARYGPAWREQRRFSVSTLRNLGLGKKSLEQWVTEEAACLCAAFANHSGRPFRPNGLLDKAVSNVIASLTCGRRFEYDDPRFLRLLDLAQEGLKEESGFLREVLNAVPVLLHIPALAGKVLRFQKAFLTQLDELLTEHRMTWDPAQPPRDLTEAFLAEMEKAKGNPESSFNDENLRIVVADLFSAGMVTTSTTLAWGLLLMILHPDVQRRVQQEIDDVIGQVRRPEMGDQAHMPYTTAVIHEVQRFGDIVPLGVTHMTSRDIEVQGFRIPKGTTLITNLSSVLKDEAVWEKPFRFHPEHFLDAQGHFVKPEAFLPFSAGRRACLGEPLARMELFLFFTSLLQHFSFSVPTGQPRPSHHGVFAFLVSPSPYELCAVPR

[3] = target: T1, Dihydroorotate dehydrogenase (quinone), mitochondrial (Homo sapiens, UniProt Q02127)
T1 sequence (Q02127 whole entry): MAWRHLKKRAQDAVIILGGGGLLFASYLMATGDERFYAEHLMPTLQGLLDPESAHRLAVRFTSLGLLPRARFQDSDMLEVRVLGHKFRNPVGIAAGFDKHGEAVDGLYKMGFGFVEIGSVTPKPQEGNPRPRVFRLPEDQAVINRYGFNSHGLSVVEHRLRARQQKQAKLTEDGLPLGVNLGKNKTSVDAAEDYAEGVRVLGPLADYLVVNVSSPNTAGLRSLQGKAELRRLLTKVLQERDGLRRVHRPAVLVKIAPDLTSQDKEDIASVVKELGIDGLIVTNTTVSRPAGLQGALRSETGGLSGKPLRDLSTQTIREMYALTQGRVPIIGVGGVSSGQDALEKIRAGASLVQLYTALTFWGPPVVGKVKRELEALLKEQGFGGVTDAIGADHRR
Description: Binding affinity to His fused human DHODH expressed in Escherichia coli assessed as dissociation half life by surface plasmon resonance assay

[4] = Metabolic stability in human liver microsome assessed as intrinsic clearance pretreated for 5 mins followed by NADPH addition and measured upto 60 mins by HPLC-MS/MS analysis; format: ADME; conditions: microsomes, 1.083 h, time < 65 min
[5] = Inhibition of monkey DHODH; set-up: species or system Macaca mulatta
[6] = Plasma protein binding in mouse assessed as free fraction at 1 uM by equilibrium dialysis based LC-MS/MS analysis; format: ADME, cell-free
MOLM-13 [7] = assay: Antitumor activity against human MOLM-13 cells xenografted in NSG mouse assessed as tumor growth inhibition at 10 mg/kg, po qd administered for 5 days relative to control; format: functional; conditions: MOLM-13, 120 h, time 5 day, read-out: TGI
[8] = Oral bioavailability in Sprague-Dawley rat at 10 mg/kg measured upto 24 hrs by LC-MS/MS analysis; format: ADME, organism-based; conditions: in vivo
[9] = Plasma protein binding in rat assessed as free fraction at 1 uM by equilibrium dialysis based LC-MS/MS analysis; format: ADME, cell-free
MOLM-13 [10] = assay: Antitumor activity against human MOLM-13 cells xenografted in NSG mouse assessed as tumor growth inhibition at 20 mg/kg, po qd administered for 5 days relative to control; format: functional; conditions: MOLM-13, 120 h, time 5 day, read-out: TGI
[11] = Tmax in Sprague-Dawley rat at 10 mg/kg, po or 2 mg/kg, iv measured upto 24 hrs by LC-MS/MS analysis; format: ADME, organism-based; conditions: in vivo
[12] = target: T1, Dihydroorotate dehydrogenase (quinone), mitochondrial; assay: Inhibition of His fused human DHODH expressed in Escherichia coli using DHO as substrate by DCIP absorbance based colorimetry assay
[13] = Cmax in Sprague-Dawley rat at 10 mg/kg, po or 2 mg/kg, iv measured upto 24 hrs by LC-MS/MS analysis; format: ADME, organism-based; set-up: dose 10 mg/kg, time < 24 hrs, route po; conditions: in vivo
[14] = Lipophilicity, logD of compound at pH 7.4; format: physicochemical; conditions: buffer
[15] = Plasma protein binding in human assessed as free fraction at 1 uM by equilibrium dialysis based LC-MS/MS analysis; format: ADME, cell-free
[16] = Toxicity in NSG mouse xenografted with human MOLM-13 cells assessed as change in body weight at 10 to 20 mg/kg, po qd administered for 5 days; format: organism-based; conditions: in vivo, 120 h, dose 10-20 mg/kg, time 5 day
MOLM-13 [17] = assay: Antitumor activity against human MOLM-13 cells xenografted in NSG mouse assessed as tumor growth inhibition at 3.75 mg/kg, po qd administered for 5 days relative to control; format: functional; conditions: time 5 day
MOLM-13 [18] = assay: Antitumor activity against human MOLM-13 cells xenografted in NSG mouse assessed as tumor growth inhibition at 1.9 mg/kg, po qd administered for 5 days relative to control; format: functional; conditions: time 5 day
MDR1 = assay: Efflux ratio of apparent permeability across basolateral to apical side over apical to basolateral side in dog MDCK-MDR1 cells; format: ADME, cell-based, Canis lupus familiaris
[19] = Toxicity in NSG mouse xenografted with human MOLM-13 cells assessed as change in body weight at 1.5 to 7.9 mg/kg, po qd administered for 5 days; format: organism-based; conditions: in vivo, 120 h, dose 1.5-7.9 mg/kg, time 5 day
MOLM-13 [20] = assay: Antitumor activity against human MOLM-13 cells xenografted in NSG mouse assessed as tumor growth inhibition at 7.5 mg/kg, po qd administered for 5 days relative to control; format: functional; conditions: time 5 day

Chain of Dihydroorotate dehydrogenase (quinone), mitochondrial (Mus musculus, UniProt O35435) (O35435 whole entry): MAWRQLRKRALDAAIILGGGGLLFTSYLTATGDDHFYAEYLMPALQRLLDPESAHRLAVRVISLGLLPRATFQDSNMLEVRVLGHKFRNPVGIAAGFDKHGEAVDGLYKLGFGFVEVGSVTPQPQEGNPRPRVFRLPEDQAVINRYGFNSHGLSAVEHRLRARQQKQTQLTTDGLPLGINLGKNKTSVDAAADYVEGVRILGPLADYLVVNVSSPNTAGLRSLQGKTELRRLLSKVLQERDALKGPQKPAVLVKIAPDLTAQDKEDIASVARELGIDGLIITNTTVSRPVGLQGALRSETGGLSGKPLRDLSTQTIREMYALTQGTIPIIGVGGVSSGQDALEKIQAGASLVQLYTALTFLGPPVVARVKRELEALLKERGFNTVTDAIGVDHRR

| IC50 [1] [nM] | CLH [2] [µL/min/1e6 cells] | IC50 (Cytochrome P450 2D6) [nM] | T1/2 [3] [h] | CLH [4] [µL/min/mg] | IC50 [5] [nM] | fraction unbound at 1 µM [6] | fraction unbound at 1 µM [9] | Tmax [11] [h] | IC50 [12] [nM] | Cmax [13] [ng/mL] | logD [14] | fraction unbound at 1 µM [15] | SMILES | further results |
| --- | --- | --- | --- | --- | --- | --- | --- | --- | --- | --- | --- | --- | --- | --- |
| 140 | < 1.9 | > 10000 | 0.5 | 8 | 1.6 | 0.23 | 0.28 | 1.7 | 1.1 | 1710 | 2.7 | 0.38 | CCn1c(CO)nn(-c2nc(O[C@@H](C)C(F)(F)F)c(C(=O)Nc3c(C)ccnc3Cl)cc2F)c1=O | inhibition in vivo at 10 mg/kg (MOLM-13 [7]): 44%; F ([8]; po, 10 mg/kg, 24 h): 167%; inhibition in vivo at 20 mg/kg (MOLM-13 [10]): 60%; Activity [16]: Non-Toxic |
| 10 | 2.3 | > 10000 | 0.65 | < 7.7 | 0.54 | 0.062 | 0.078 | 4 | 0.3 | 2190 | 2.4 | 0.063 | CCn1c(CO)nn(-c2nc(O[C@@H](C)C(F)(F)F)c(C(=O)Nc3c(C)cnc(OC)c3Cl)cc2F)c1=O | TGI (MOLM-13 [17]): 76%; TGI (MOLM-13 [18]): 71%; bioavailability ([8]; Sprague-Dawley): 106%; efflux ratio (MDR1): > 30; Activity [19]: Non-Toxic; TGI (MOLM-13 [20]): 79% |
